Test results as given in PMC11855827, “High-Throughput Screening of Five Compound Libraries for Anthelmintic Activity and Toxicity Leads to the Discovery of Two Flavonoid Compounds” (International Journal of Molecular Sciences, 2025).
“And” between values parts separate entries of the source, which are not always exact repeats. Identical values can stand only once. Counter-ions that a name gives are not always drawn. Like-named read-outs stand apart in the source and are kept apart here.

System: C. elegans
[1] = Table S2, C. elegans SS assay, 110 μM, 0 h, averages of 4 data points
[2] = Table S2, C. elegans SS assay, 110 μM, 24 h, averages of 4 data points

With Teicoplanin the “Percentage of motility inhibition 0 h” value [1] was 3% and the “Percentage of motility inhibition 24 h” value [2] was 9%.
For Evocarpine, the “Percentage of motility inhibition 0 h” value [1] was 8% and the “Percentage of motility inhibition 24 h” value [2] was 20%.
With `COc1cc(O)cc(O)c1C(=O)/C=C/c1ccccc1` [(E)‐Cardamonin] the “Percentage of motility inhibition 0 h” value [1] was 13% and the “Percentage of motility inhibition 24 h” value [2] was 8%.
With `Oc1cc(O)c2ccc(-c3ccc(O)c(O)c3)[o+]c2c1.[Cl-]` [Luteolinidin (chloride)] the “Percentage of motility inhibition 0 h” value [1] was 29% and the “Percentage of motility inhibition 24 h” value [2] was 8%.
In the case of `COc1cc2c(cc1OC)-c1cc3ccc(OC)c(OC)c3c[n+]1CC2.[Cl-]` [Palmatine (chloride)], the “Percentage of motility inhibition 24 h” value [2] is reported as 0%.
`O=C(CC(O)(CC(=O)OCc1ccc(OC2OC(CO)C(O)C(O)C2O)cc1)C(=O)OCc1ccc(OC2OC(CO)C(O)C(O)C2O)cc1)OCc1ccc(OC2OC(CO)C(O)C(O)C2O)cc1` (stereo not shown) [Parishin] was tested, and the “Percentage of motility inhibition 0 h” value [1] was 0% and the “Percentage of motility inhibition 24 h” value [2] was 12%.
With `COc1ccc2cc1Oc1ccc(cc1)C[C@H]1c3cc(c(OC)cc3CCN1C)Oc1c(O)c(OC)cc3c1[C@H](C2)N(C)CC3` [(R)‐Fangchinoline] the “Percentage of motility inhibition 0 h” value [1] was 44% and the “Percentage of motility inhibition 24 h” value [2] was 1%.
`OC1C[C@H]2CC[C@@H](C1)N2` (stereo partly shown) [Nortropine] was tested, and the “Percentage of motility inhibition 0 h” value [1] was 12% and the “Percentage of motility inhibition 24 h” value [2] was 11%.
With Liensinine (Diperchlorate) the “Percentage of motility inhibition 0 h” value [1] was 0% and the “Percentage of motility inhibition 24 h” value [2] was 0%.
For `CCCCCCCCCCCCC(=O)NNC(=O)c1c(O)c2ccccc2n(CC)c1=O` [I2906], the “Percentage of motility inhibition 0 h” value [1] was 27% and the “Percentage of motility inhibition 24 h” value [2] was 30%.
In the case of `C/C1=C/CC[C@H](C)C(=O)C[C@@H](C(C)C)C(=O)C1` [Curdione], the “Percentage of motility inhibition 0 h” value [1] is reported as 7% and the “Percentage of motility inhibition 24 h” value [2] is reported as 22%.
For `CC1(C)CC[C@]2(C(=O)O)CC[C@]3(C)C(=CC[C@@H]4[C@@]5(C)CC[C@H](O[C@@H]6O[C@H](C(=O)O)[C@@H](O)[C@H](O[C@@H]7OC[C@@H](O)[C@H](O)[C@H]7O)[C@H]6O)C(C)(C)[C@@H]5CC[C@]43C)[C@@H]2C1` [Momordin Ic], the “Percentage of motility inhibition 0 h” value [1] was 12% and the “Percentage of motility inhibition 24 h” value [2] was 4%.
For `CC1(C)CC[C@]2(C(=O)O[C@@H]3O[C@H](CO)[C@@H](O)[C@H](O)[C@H]3O)CC[C@]3(C)C(=CC[C@@H]4[C@@]5(C)CC[C@H](O[C@@H]6O[C@H](C(=O)O)[C@@H](O)[C@H](O)[C@H]6O[C@@H]6O[C@H](CO)[C@@H](O)[C@H](O)[C@H]6O)C(C)(C)[C@@H]5CC[C@]43C)[C@@H]2C1` [Ginsenoside Ro], the “Percentage of motility inhibition 0 h” value [1] was 1% and the “Percentage of motility inhibition 24 h” value [2] was 0%.
In the case of `CC1CCC(C(C)C)C(O)C1` (stereo not shown) [Menthol], the “Percentage of motility inhibition 0 h” value [1] is reported as 3% and the “Percentage of motility inhibition 24 h” value [2] is reported as 17%.
In the case of `CCO[C@H]1O[C@@H]2O[C@@]3(C)CC[C@H]4[C@H](C)CC[C@@H]([C@H]1C)[C@@]24OO3` [Artemotil], the “Percentage of motility inhibition 24 h” value [2] is reported as 0% and 2%.
In the case of `Clc1ccc(C(Cn2ccnc2)OCc2c(Cl)cccc2Cl)c(Cl)c1.O=[N+]([O-])O` (stereo not shown) [Isoconazole (nitrate)], the “Percentage of motility inhibition 0 h” value [1] is reported as 17% and the “Percentage of motility inhibition 24 h” value [2] is reported as 4%.
With `Nc1nc(NC2CC2)c2ncn([C@H]3C=C[C@@H](CO)C3)c2n1.Nc1nc(NC2CC2)c2ncn([C@H]3C=C[C@@H](CO)C3)c2n1.O=S(=O)(O)O` [Abacavir (sulfate)] the “Percentage of motility inhibition 0 h” value [1] was 29% and the “Percentage of motility inhibition 24 h” value [2] was 2%.
With Madecassoside the “Percentage of motility inhibition 0 h” value [1] was 12% and the “Percentage of motility inhibition 24 h” value [2] was 1%.
Milbemycin [reference compound] was tested, and the “Inhibition (%) 110 μM (0 h)” value was 100 ± 0% and the “Inhibition (%) 110 μM (24 h)” value was 86 ± 14%.
For `Cl.O[C@H]1CCN2Cc3ccccc3N=C12` [Vasicine (hydrochloride)], the “Percentage of motility inhibition 0 h” value [1] was 0% and the “Percentage of motility inhibition 24 h” value [2] was 2%.
In the case of `C[C@@]1(F)[C@H](O)[C@@H](CO)O[C@H]1n1ccc(=O)[nH]c1=O` [PSI‐6206], the “Percentage of motility inhibition 0 h” value [1] is reported as 19% and the “Percentage of motility inhibition 24 h” value [2] is reported as 5%.
In the case of `CC(=O)O.Cc1cc2c(C(C)C)c(O)c(O)c(C=O)c2c(O)c1-c1c(C)cc2c(C(C)C)c(O)c(O)c(C=O)c2c1O` [Gossypol (acetic acid)], the “Percentage of motility inhibition 0 h” value [1] is reported as 0% and the “Percentage of motility inhibition 24 h” value [2] is reported as 7%.
For `C[N+](C)(C)CCO.O=C([O-])C(O)C(O)C(=O)O` (stereo not shown) [Choline (bitartrate)], the “Percentage of motility inhibition 0 h” value [1] was 0% and the “Percentage of motility inhibition 24 h” value [2] was 0%.
`CC1(C)[C@@H](O[C@@H]2O[C@H](C(=O)O)[C@@H](O)[C@H](O)[C@H]2O)CC[C@]2(C)[C@H]3C(=O)C=C4[C@@H]5C[C@@](C)(C(=O)O)CC[C@]5(C)CC[C@@]4(C)[C@]3(C)CC[C@@H]12` [Glycyrrhetic acid 3-O-β-D-glucuronide] was tested, and the “Percentage of motility inhibition 0 h” value [1] was 2% and the “Percentage of motility inhibition 24 h” value [2] was 22%.
For `C/C=C1/CN2[C@H]3Cc4c([nH]c5ccccc45)[C@]2(O)C[C@@H]1[C@@]3(CO)C(=O)OC` [16‐Epivoacarpine], the “Percentage of motility inhibition 0 h” value [1] was 7% and the “Percentage of motility inhibition 24 h” value [2] was 2%.
`CN1CCN(c2ccc(N3C[C@H](CO)OC3=O)cc2F)C=N1` [Delpazolid] was tested, and the “Percentage of motility inhibition 0 h” value [1] was 2% and the “Percentage of motility inhibition 24 h” value [2] was 3%.
In the case of `C/C=C/C=C/C=C/CC/C=C/C(=O)NCC(C)(C)O` [Hydroxy‐β‐sanshool], the “Percentage of motility inhibition 0 h” value [1] is reported as 46% and the “Percentage of motility inhibition 24 h” value [2] is reported as 10%.
For `COc1cc2c(cc1O)[C@@H]1Cc3ccc(OC)c(OC)c3CN1CC2` [(‐)‐Isocorypalmine], the “Percentage of motility inhibition 0 h” value [1] was 0% and the “Percentage of motility inhibition 24 h” value [2] was 0%.
`COC(=O)C1=CC[C@@]23CC[C@@H]([C@@](C)(/C=C/C=C(\C)C(=O)O[C@@H]4O[C@H](CO)[C@@H](O)[C@H](O)[C@H]4O)OC2=O)[C@@]3(OC(C)=O)CC1` [Pseudolaric acid B β-D-glucoside] was tested, and the “Percentage of motility inhibition 0 h” value [1] was 4% and the “Percentage of motility inhibition 24 h” value [2] was 0%.
With `C[C@H]1CC[C@@H]2N(C1)C[C@H]1[C@@H]3C[C@H]4[C@@H](C[C@H](O)[C@H]5C[C@@H](O)CC[C@@]54C)[C@@H]3CC[C@@H]1[C@]2(C)O` [Peimine] the “Percentage of motility inhibition 0 h” value [1] was 7% and the “Percentage of motility inhibition 24 h” value [2] was 0%.
For Enfuvirtide, the “Percentage of motility inhibition 0 h” value (0 h, 110 μM) was 36% and the “Percentage of motility inhibition 24 h” value (24 h, 110 µM) was 30%.
With `[Cl-].c1c2c(cc3c1OCO3)-c1cc3cc4c(cc3c[n+]1CC2)OCO4` [Pseudocoptisine (chloride)] the “Percentage of motility inhibition 0 h” value [1] was 0% and the “Percentage of motility inhibition 24 h” value [2] was 14%.
In the case of Dictamine, the “Percentage of motility inhibition 0 h” value (110 µM) is reported as 0% and the “Percentage of motility inhibition 24 h” value (110 µM) is reported as 20%.
`C[C@@H]1O[C@@H](O[C@H]2[C@H](O[C@H]3CC[C@@]4(C)[C@@H](CC[C@]5(C)[C@@H]4CC=C4[C@@H]6CC(C)(C)CC[C@]6(C(=O)O[C@@H]6O[C@H](CO[C@@H]7O[C@H](CO)[C@@H](O)[C@H](O)[C@H]7O)[C@@H](O)[C@H](O)[C@H]6O)CC[C@]45C)[C@]3(C)CO)OC[C@H](O)[C@@H]2O)[C@H](O)[C@H](O)[C@H]1O` [Dipsacoside B] was tested, and the “Percentage of motility inhibition 0 h” value (110 µM) was 7% and the “Percentage of motility inhibition 24 h” value (110 µM) was 5%.
In the case of `CC(C)(O)CCC(=O)[C@](C)(O)C1[C@H](O)C[C@@]2(C)[C@@H]3CC=C4[C@@H](C[C@H](O)[C@@H](O)C4(C)C)[C@]3(C)C(=O)C[C@]12C` (stereo partly shown) [Cucurbitacin IIb], the “Percentage of motility inhibition 0 h” value [1] is reported as 7% and the “Percentage of motility inhibition 24 h” value [2] is reported as 43%.
In the case of `CC(=O)[N-]S(=O)(=O)c1ccc(N)cc1.[Na+]` [Sulfacetamide (Sodium)], the “Percentage of motility inhibition 0 h” value [1] is reported as 33% and the “Percentage of motility inhibition 24 h” value [2] is reported as 6%.
`C=C(C(=O)O)[C@@H]1CC[C@@H](C)[C@@H]2CCC(C)=C[C@@H]21` [Artemisic acid] was tested, and the “Percentage of motility inhibition 0 h” value [1] was 1% and the “Percentage of motility inhibition 24 h” value [2] was 14%.
For `CCOC(=O)c1c(CSc2ccccc2)n(C)c2cc(Br)c(O)c(CN(C)C)c12.Cl` [Arbidol (hydrochloride)], the “Percentage of motility inhibition 0 h” value [1] was 33% and the “Percentage of motility inhibition 24 h” value [2] was 3%.
`CC[C@@H](C(=O)[C@@H](C)[C@@H](O)[C@H](C)[C@@H]1O[C@@H]([C@@H](CC)C(=O)O)CC[C@@H]1C)[C@H]1O[C@]2(C=C[C@@H](O)[C@]3(CC[C@@](C)([C@H]4CC[C@](O)(CC)[C@H](C)O4)O3)O2)[C@H](C)C[C@@H]1C` [Salinomycin (sodium salt)] was tested, and the “Percentage of motility inhibition 0 h” value [1] was 28% and the “Percentage of motility inhibition 24 h” value [2] was 18%.
In the case of `O=C(/C=C\c1ccc(O)c(O)c1)N[C@@H](Cc1ccc(O)c(O)c1)C(=O)O` [Clovamide], the “Percentage of motility inhibition 0 h” value [1] is reported as 2% and the “Percentage of motility inhibition 24 h” value [2] is reported as 0%.
In the case of `C[C@H](CC(=O)C[C@](C)(O)[C@@H]1CC(=O)[C@@]2(C)C3=C(C(=O)C[C@]12C)[C@@]1(C)CC[C@H](O)C(C)(C)[C@@H]1C[C@@H]3O)C(=O)O` [Ganoderic acid I], the “Percentage of motility inhibition 0 h” value [1] is reported as 0% and the “Percentage of motility inhibition 24 h” value [2] is reported as 11%.
With `O=C1O[C@H]([C@@H](O)CO)C([O-])=C1O.[Na+]` [L-Ascorbic acid (sodium salt)] the “Percentage of motility inhibition 0 h” value [1] was 6% and the “Percentage of motility inhibition 24 h” value [2] was 3%.
For `C1CNCCN1.O=C(O)CC(O)C(=O)O` (stereo not shown) [Piperazine (malate)], the “Percentage of motility inhibition 0 h” value [1] was 26% and the “Percentage of motility inhibition 24 h” value [2] was 14%.
For `COc1ccc2c(c1O)-c1c(O)c(OC)cc3c1[C@H](C2)[N+](C)(C)CC3.[I-]` [(+)‐Magnoflorine (iodide)], the “Percentage of motility inhibition 0 h” value [1] was 10% and the “Percentage of motility inhibition 24 h” value [2] was 8%.
For `CC[C@H]1CN2CCc3cc(OC)c(OC)cc3[C@@H]2C[C@@H]1C[C@H]1NCCc2cc(O)c(OC)cc21.Cl.Cl` [Cephaeline (dihydrochloride)], the “Percentage of motility inhibition 0 h” value [1] was 18% and the “Percentage of motility inhibition 24 h” value [2] was 4%.
For `CC(C)(O[C@@H]1O[C@H](CO)[C@@H](O)[C@H](O)[C@H]1O)[C@@H]1CC[C@](O)(CO)[C@H]2CC(=O)[C@@](C)(O)[C@@H]2C1` [Atractyloside A], the “Percentage of motility inhibition 0 h” value [1] was 13% and the “Percentage of motility inhibition 24 h” value [2] was 28%.
With `COc1ccc(C[C@H]2NC[C@H](O)[C@H]2OC(C)=O)cc1` [Anisomycin] the “Percentage of motility inhibition 0 h” value [1] was 10% and the “Percentage of motility inhibition 24 h” value [2] was 44%.
`CC(C)=CC1CC(O)(C2CCC3(C)C2CCC2C4(C=O)CCC(OC5OCC(O)C(OC6OCC(O)C(O)C6O)C5OC5OC(C)C(O)C(O)C5O)C(C)(C)C4CCC23C)C(O)O1` (stereo not shown) [Gypenoside A] was tested, and the “Percentage of motility inhibition 0 h” value [1] was 0% and the “Percentage of motility inhibition 24 h” value [2] was 0%.
